Like-named read-outs stand apart in the source and are kept apart here. *1 amine or outer side, *2 acyl side, *3 side chain or, on linkers, in order; H or OH if unused. Where a SMILES comes first, the peptide text is derived from it. Side-chain parts run from the residue outwards. [ ]: non-standard residue; d: D form. The star is where a group is joined. Isobutyryl(2-(3-CN-5-F-Ph)) = CC(C)(C(=O)*)c1cc(F)cc(C#N)c1; C20 diacid = O=C(O)CCCCCCCCCCCCCCCCCCC(=O)*; αMePhe(2-F) = C[C@](N)(Cc1ccccc1F)C(=O)O; γGlu = O=C(O)[C@H](CCC(=O)[*:2])N[*:1]; X40 = CC(C)(C(=O)*)n1cc(Cl)cn1; X24 = O=C(C1(c2cccnc2)CCC1)*; X10 = Clc1cccc(N*)c1Cl; AEEA = NCCOCCOCC(=O)O; Aib = CC(C)(N)C(=O)O; CO = O=C([*:1])[*:2]; X12 = Fc1cccc(N*)c1; GABA = NCCCC(=O)O; βAla = NCCC(=O)O
What was measured:
GIP receptor = biological target: T1, GIP receptor (Homo sapiens, UniProt P48546); assay: HitHunter cAMP assay, GIP receptor; assay type: cell-based; conditions: read-out: Emax GIP-1R
T1 sequence (P48546 22-466): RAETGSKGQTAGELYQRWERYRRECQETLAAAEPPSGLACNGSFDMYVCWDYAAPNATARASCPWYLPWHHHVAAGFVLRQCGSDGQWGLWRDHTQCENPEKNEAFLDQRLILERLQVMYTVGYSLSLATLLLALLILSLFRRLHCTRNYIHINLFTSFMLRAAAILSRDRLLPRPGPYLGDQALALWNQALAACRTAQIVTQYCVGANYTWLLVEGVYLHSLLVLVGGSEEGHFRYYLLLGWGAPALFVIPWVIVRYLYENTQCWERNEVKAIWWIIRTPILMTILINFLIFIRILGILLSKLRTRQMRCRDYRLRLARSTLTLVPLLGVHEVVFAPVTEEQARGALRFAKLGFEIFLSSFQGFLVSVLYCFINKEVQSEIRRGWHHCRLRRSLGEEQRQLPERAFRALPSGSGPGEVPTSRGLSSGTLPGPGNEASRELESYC

GLP-1 receptor = GLP-1 receptor (Homo sapiens, UniProt P43220); assay: HitHunter cAMP assay, GLP-1 receptor; assay type: cell-based; conditions: read-out: Emax GLP-1R
Sequence of GLP-1 receptor (P43220 24-463): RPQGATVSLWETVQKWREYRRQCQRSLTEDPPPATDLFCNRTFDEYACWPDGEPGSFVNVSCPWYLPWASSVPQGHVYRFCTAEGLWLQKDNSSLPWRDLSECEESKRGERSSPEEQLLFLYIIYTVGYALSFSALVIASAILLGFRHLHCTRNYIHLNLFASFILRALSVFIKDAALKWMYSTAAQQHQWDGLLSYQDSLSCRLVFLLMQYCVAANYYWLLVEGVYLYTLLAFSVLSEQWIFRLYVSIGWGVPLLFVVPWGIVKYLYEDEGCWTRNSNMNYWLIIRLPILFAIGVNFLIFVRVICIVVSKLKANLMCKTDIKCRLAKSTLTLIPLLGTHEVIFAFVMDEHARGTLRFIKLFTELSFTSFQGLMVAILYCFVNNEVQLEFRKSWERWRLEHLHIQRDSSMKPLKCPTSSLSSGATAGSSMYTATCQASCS

[1] = CHO cells, cAMP, normalized to maximum signal from GIP (high) and DMSO (low)
[2] = CHO cells, cAMP, normalized to maximum signal from GLP-1 (high) and DMSO (low)

Compound | Emax (GIP receptor; [1]) [%] | Emax (GLP-1 receptor; [2]) [%] | Emax (GIP receptor; CHO) [%] | Emax (GLP-1 receptor; CHO) [%]
CC[C@H](C)[C@H](NC(=O)[C@H](CC(C)C)NC(=O)[C@H](Cc1c[nH]c2ccccc12)NC(=O)[C@H](CCC(N)=O)NC(=O)[C@@H](NC(=O)[C@H](Cc1ccccc1)NC(=O)[C@H](C)NC(=O)[C@H](CCCCNC(=O)COCCOCCNC(=O)COCCOCCNC(=O)CC[C@H](NC(=O)CCCCCCCCCCCCCCCCCCC(=O)O)C(=O)O)NC(=O)[C@H](CCC(N)=O)NC(=O)[C@H](C)NC(=O)[C@@H](NC(=O)[C@H](CCCCN)NC(=O)[C@H](CC(=O)O)NC(=O)[C@H](CC(C)C)NC(=O)C(C)(C)NC(=O)[C@@H](NC(=O)[C@H](CO)NC(=O)[C@H](Cc1ccc(O)cc1)NC(=O)[C@H](CC(=O)O)NC(=O)[C@H](CO)NC(=O)[C@@H](NC(=O)[C@H](Cc1ccccc1)NC(=O)[C@@H](NC(=O)CNC(=O)[C@H](CCC(=O)O)NC(=O)CCNC(=O)C1(c2cccnc2)CCC1)[C@@H](C)O)[C@@H](C)O)[C@@H](C)CC)[C@@H](C)CC)C(C)C)C(=O)N[C@@H](C)C(=O)NCC(=O)NCC(=O)N1CCC[C@H]1C(=O)N[C@@H](CO)C(=O)N[C@@H](CO)C(=O)NCC(=O)N[C@@H](C)C(=O)N1CCC[C@H]1C(=O)N1CCC[C@H]1C(=O)N1CCC[C@H]1C(=O)N[C@@H](CO)C(N)=O [Compound 255] ({X24-βAla}-EGTFTSDYSI[Aib]LDKIAQK([AEEA-AEEA-γGlu-C20 diacid])AFVQWLIAGGPSSGAPPPS-NH2; C-terminus assumed) | 99 | 90 |  | 
CC[C@H](C)[C@H](NC(=O)[C@H](CC(C)C)NC(=O)[C@H](Cc1c[nH]c2ccccc12)NC(=O)[C@H](CCC(N)=O)NC(=O)[C@@H](NC(=O)[C@H](Cc1ccccc1)NC(=O)[C@H](C)NC(=O)[C@H](CCCCNC(=O)COCCOCCNC(=O)COCCOCCNC(=O)CC[C@H](NC(=O)CCCCCCCCCCCCCCCCCCC(=O)O)C(=O)O)NC(=O)[C@H](CCC(N)=O)NC(=O)[C@H](C)NC(=O)[C@@H](NC(=O)[C@H](CCCCN)NC(=O)[C@H](CC(=O)O)NC(=O)[C@H](CC(C)C)NC(=O)C(C)(C)NC(=O)[C@@H](NC(=O)[C@H](CO)NC(=O)[C@H](Cc1ccc(O)cc1)NC(=O)[C@H](CC(=O)O)NC(=O)[C@H](CO)NC(=O)[C@@H](NC(=O)[C@H](Cc1ccccc1)NC(=O)[C@@H](NC(=O)CNC(=O)[C@H](CCC(=O)O)NC(=O)CCCNC(=O)CNC(=O)Nc1cccc(F)c1)[C@@H](C)O)[C@@H](C)O)[C@@H](C)CC)[C@@H](C)CC)C(C)C)C(=O)N[C@@H](C)C(=O)NCC(=O)NCC(=O)N1CCC[C@H]1C(=O)N[C@@H](CO)C(=O)N[C@@H](CO)C(=O)NCC(=O)N[C@@H](C)C(=O)N1CCC[C@H]1C(=O)N1CCC[C@H]1C(=O)N1CCC[C@H]1C(=O)N[C@@H](CO)C(N)=O [Compound 260] ({X12-CO}-G[GABA]EGTFTSDYSI[Aib]LDKIAQK([AEEA-AEEA-γGlu-C20 diacid])AFVQWLIAGGPSSGAPPPS-NH2; C-terminus assumed) | 107 | 124 |  | 
CC[C@H](C)[C@H](NC(=O)[C@H](CC(C)C)NC(=O)[C@H](Cc1c[nH]c2ccccc12)NC(=O)[C@H](CCC(N)=O)NC(=O)[C@@H](NC(=O)[C@H](Cc1ccccc1)NC(=O)[C@H](C)NC(=O)[C@H](CCCCNC(=O)COCCOCCNC(=O)COCCOCCNC(=O)CC[C@H](NC(=O)CCCCCCCCCCCCCCCCCCC(=O)O)C(=O)O)NC(=O)[C@H](CCC(N)=O)NC(=O)[C@H](C)NC(=O)[C@@H](NC(=O)[C@H](CCCCN)NC(=O)[C@H](CC(=O)O)NC(=O)[C@H](CC(C)C)NC(=O)C(C)(C)NC(=O)[C@@H](NC(=O)[C@H](CO)NC(=O)[C@H](Cc1ccc(O)cc1)NC(=O)[C@H](CC(=O)O)NC(=O)[C@H](CO)NC(=O)[C@@H](NC(=O)[C@H](Cc1ccccc1)NC(=O)[C@@H](NC(=O)CNC(=O)[C@H](CCC(=O)O)NC(=O)CCNC(=O)C(C)(C)c1cc(F)cc(C#N)c1)[C@@H](C)O)[C@@H](C)O)[C@@H](C)CC)[C@@H](C)CC)C(C)C)C(=O)N[C@@H](C)C(=O)NCC(N)=O [Compound 229] ({Isobutyryl(2-(3-CN-5-F-Ph))-βAla}-EGTFTSDYSI[Aib]LDKIAQK([AEEA-AEEA-γGlu-C20 diacid])AFVQWLIAG-NH2; N-terminus and C-terminus assumed) | 107 | 102 |  | 
CC[C@H](C)[C@H](NC(=O)[C@H](CC(C)C)NC(=O)[C@H](Cc1c[nH]c2ccccc12)NC(=O)[C@H](CCC(N)=O)NC(=O)[C@@H](NC(=O)[C@H](Cc1ccccc1)NC(=O)[C@H](C)NC(=O)[C@H](CCCCNC(=O)COCCOCCNC(=O)COCCOCCNC(=O)CC[C@H](NC(=O)CCCCCCCCCCCCCCCCCCC(=O)O)C(=O)O)NC(=O)[C@H](CCC(N)=O)NC(=O)[C@H](C)NC(=O)[C@@H](NC(=O)[C@H](CCCCN)NC(=O)[C@H](CC(=O)O)NC(=O)[C@H](CC(C)C)NC(=O)C(C)(C)NC(=O)[C@@H](NC(=O)[C@H](CO)NC(=O)[C@H](Cc1ccc(O)cc1)NC(=O)[C@H](CC(=O)O)NC(=O)[C@H](CO)NC(=O)[C@@H](NC(=O)[C@H](Cc1ccccc1)NC(=O)[C@@H](NC(=O)CNC(=O)[C@H](CCC(=O)O)NC(=O)CCCNC(=O)CNC(=O)Nc1cccc(Cl)c1Cl)[C@@H](C)O)[C@@H](C)O)[C@@H](C)CC)[C@@H](C)CC)C(C)C)C(=O)N[C@@H](C)C(=O)NCC(=O)NCC(=O)N1CCC[C@H]1C(=O)N[C@@H](CO)C(=O)N[C@@H](CO)C(=O)NCC(=O)N[C@@H](C)C(=O)N1CCC[C@H]1C(=O)N1CCC[C@H]1C(=O)N1CCC[C@H]1C(=O)N[C@@H](CO)C(N)=O [Compound 262] ({X10-CO}-G[GABA]EGTFTSDYSI[Aib]LDKIAQK([AEEA-AEEA-γGlu-C20 diacid])AFVQWLIAGGPSSGAPPPS-NH2; C-terminus assumed) |  |  | 106 | 90
CC[C@H](C)[C@H](NC(=O)[C@H](CC(C)C)NC(=O)[C@H](Cc1c[nH]c2ccccc12)NC(=O)[C@H](CCC(N)=O)NC(=O)[C@@H](NC(=O)[C@H](Cc1ccccc1)NC(=O)[C@H](C)NC(=O)[C@H](CCCCNC(=O)COCCOCCNC(=O)COCCOCCNC(=O)CC[C@H](NC(=O)CCCCCCCCCCCCCCCCCCC(=O)O)C(=O)O)NC(=O)[C@H](CCC(N)=O)NC(=O)[C@H](C)NC(=O)[C@@H](NC(=O)[C@H](CCCCN)NC(=O)[C@H](CC(=O)O)NC(=O)[C@H](CC(C)C)NC(=O)C(C)(C)NC(=O)[C@@H](NC(=O)[C@H](CO)NC(=O)[C@H](Cc1ccc(O)cc1)NC(=O)[C@H](CC(=O)O)NC(=O)[C@H](CO)NC(=O)[C@@H](NC(=O)[C@](C)(Cc1ccccc1F)NC(=O)[C@@H](NC(=O)CNC(=O)[C@H](CCC(=O)O)NC(=O)CCNC(=O)C(C)(C)c1cc(F)cc(C#N)c1)[C@@H](C)O)[C@@H](C)O)[C@@H](C)CC)[C@@H](C)CC)C(C)C)C(=O)N[C@@H](C)C(=O)NCC(N)=O [Compound 228] ({Isobutyryl(2-(3-CN-5-F-Ph))-βAla}-EGT[αMePhe(2-F)]TSDYSI[Aib]LDKIAQK([AEEA-AEEA-γGlu-C20 diacid])AFVQWLIAG-NH2; N-terminus and C-terminus assumed) | 105 | 100 |  | 
CC[C@H](C)[C@H](NC(=O)[C@H](CC(C)C)NC(=O)[C@H](Cc1c[nH]c2ccccc12)NC(=O)[C@H](CCC(N)=O)NC(=O)[C@@H](NC(=O)[C@H](Cc1ccccc1)NC(=O)[C@H](C)NC(=O)[C@H](CCCCNC(=O)COCCOCCNC(=O)COCCOCCNC(=O)CC[C@H](NC(=O)CCCCCCCCCCCCCCCCCCC(=O)O)C(=O)O)NC(=O)[C@H](CCC(N)=O)NC(=O)[C@H](C)NC(=O)[C@@H](NC(=O)[C@H](CCCCN)NC(=O)[C@H](CC(=O)O)NC(=O)[C@H](CC(C)C)NC(=O)C(C)(C)NC(=O)[C@@H](NC(=O)[C@H](CO)NC(=O)[C@H](Cc1ccc(O)cc1)NC(=O)[C@H](CC(=O)O)NC(=O)[C@H](CO)NC(=O)[C@@H](NC(=O)[C@H](Cc1ccccc1)NC(=O)[C@@H](NC(=O)CNC(=O)[C@H](CCC(=O)O)NC(=O)CCCNC(=O)C(C)(C)n1cc(Cl)cn1)[C@@H](C)O)[C@@H](C)O)[C@@H](C)CC)[C@@H](C)CC)C(C)C)C(=O)N[C@@H](C)C(=O)NCC(=O)NCC(=O)N1CCC[C@H]1C(=O)N[C@@H](CO)C(=O)N[C@@H](CO)C(=O)NCC(=O)N[C@@H](C)C(=O)N1CCC[C@H]1C(=O)N1CCC[C@H]1C(=O)N1CCC[C@H]1C(=O)N[C@@H](CO)C(N)=O [Compound 248] ({X40-GABA}-EGTFTSDYSI[Aib]LDKIAQK([AEEA-AEEA-γGlu-C20 diacid])AFVQWLIAGGPSSGAPPPS-NH2; C-terminus assumed) | 104 | 90 |  | 

Reference: patent US12281149B2, “Modulators of G-protein coupled receptors” (priority 2021, dated 2025)
